{"source": "patent US4603142A", "about": "“Cholesterol lowering method of use” (Wisconsin Alumni Research Foundation, priority 1984, dated 1986)", "key": {"[1]": {"tested_on": "Fatty Acid Synthetase", "test": "Hepatic fatty acid synthetase activity in 13-week-old WLH male chickens", "format": "in vivo, chicken", "details": "20 ppm in corn diet, fed four weeks, liver", "excerpt": "(§1) These responses were attributed to the presence in the small grains of relatively high concentrations of beta-D-glucans and pentosans. A long-standing interest in lipid metabolism prompted us to examine certain lipogenic and cholesterolgenic enzymes in the tissues of these birds. Methods used for handling blood samples, preparing subcellular fractions of liver and assay procedures for beta-hydroxy-beta-methylglutaryl coenzyme A (HMG Co-A) reductase, fatty acid synthetase (FAS), plasma cholesterol and triglycerides and the statistical treatment of the data have been described [Qureshi AA et al. (1980): Regulation of lipid metabolism in chicken livers by dietary cereals, J Nutr 110:388-393].\nCholesterol inhibitor I was re-chromatographed by HPLC and the UV absorption spectrum obtained. Maximum absorption occurred at 292 nm. This purified fraction was used for high resolution mass spectrometric analysis. Several scans were made using ionization temperatures from 90-180 degrees Centigrade to increase the possibility of detecting impurities. […] The results shown on Table 3 confirm those previously recorded for petroleum ether solubles of HPBF and cholestrol inhibitor I. In a final experiment, the effects of cholestrol inhibitor I and lemon grass oil on hepatocyte HMG Co-A reductase and FAS activities were tested. […]\nexpressed as mean ± SD; N = 8 chickens per group; HMGCoA reductase = […]"}, "[2]": {"biological_target": "T1, HMG-CoA reductase (Homo sapiens, UniProt P04035)", "T1 sequence (P04035 1-888)": "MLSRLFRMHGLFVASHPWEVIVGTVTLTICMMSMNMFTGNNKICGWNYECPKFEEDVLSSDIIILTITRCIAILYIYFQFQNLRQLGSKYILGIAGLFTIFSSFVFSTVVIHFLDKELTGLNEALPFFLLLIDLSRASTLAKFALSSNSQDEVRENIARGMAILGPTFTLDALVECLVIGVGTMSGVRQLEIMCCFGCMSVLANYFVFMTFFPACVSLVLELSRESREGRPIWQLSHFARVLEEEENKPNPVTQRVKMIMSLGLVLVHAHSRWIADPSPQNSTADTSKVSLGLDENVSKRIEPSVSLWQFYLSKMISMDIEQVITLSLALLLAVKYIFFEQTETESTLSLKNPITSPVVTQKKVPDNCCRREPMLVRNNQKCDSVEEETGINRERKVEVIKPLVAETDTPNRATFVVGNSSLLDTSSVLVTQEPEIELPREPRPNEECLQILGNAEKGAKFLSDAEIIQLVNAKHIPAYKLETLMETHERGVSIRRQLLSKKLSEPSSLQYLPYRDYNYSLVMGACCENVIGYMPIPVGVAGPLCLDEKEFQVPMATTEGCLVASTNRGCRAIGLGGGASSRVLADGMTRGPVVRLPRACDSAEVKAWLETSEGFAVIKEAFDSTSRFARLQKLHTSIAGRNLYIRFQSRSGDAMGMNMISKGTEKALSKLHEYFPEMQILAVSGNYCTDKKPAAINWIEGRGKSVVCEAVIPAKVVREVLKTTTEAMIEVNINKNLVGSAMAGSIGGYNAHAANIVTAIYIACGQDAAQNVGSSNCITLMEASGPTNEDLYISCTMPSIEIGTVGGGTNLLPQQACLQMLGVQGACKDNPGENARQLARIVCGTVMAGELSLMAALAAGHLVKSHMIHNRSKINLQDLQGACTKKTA", "test": "Hepatic HMG-CoA reductase activity in 3-week-old broiler male chickens fed supplemented corn diet", "format": "in vivo, chicken", "design": "preparing subcellular fractions of liver and assay procedures for beta-hydroxy-beta-methylglutaryl coenzyme A (HMG Co-A) reductase; from tissue; host or cells: chicken liver (microsomal fraction)", "details": "liver; for HMG-CoA Reductase: mean ± SD, N = 9", "excerpt": "as §1\n(§2) For large scale preparation of these compounds, 10 grams of the petroleum ether soluble fraction of HPBF were dissolved in 10 ml petroleum ether and applied to a 90×3.5 cm silicic acid column (Bio-Silica, 100-200 mesh). The column was washed with 2,500 ml petroleum ether followed by stepwise elution with increasing amounts of ether in petroleum ether. Fraction 8 of the column corresponded to HPLC fraction 5. A concentration-dependent suppression of HMG Co-A reductase activity and enhancement of FAS activity was noted within this range. Serum total and LDL cholesterol levels also fell in a dose-dependent response. […] In a companion experiment, using the same control birds, the effect of cholesterol inhibitor I at 5 ppm is compared to the effect of the petroleum ether solubles of HPBF at 20% equivalent on weight gain, HMG Co-A reductase and FAS activities, serum cholesterol and serum triglyceride levels (Table 2). […] Serum triglyceride levels reflected the influence of the diet on FAS activity. […] Cholesterol inhibitor I was a more powerful suppressor of LDL cholesterol (Table 2).\n(§3) ^1 Feeding period was 3 weeks; Time of killing was 0800; Data\n(§4) expressed as mean ± SD; N = 9 chickens per group; HMGCoA reductase =\nhydroxy-methyl-Glutaryl-Coenzyme A reductase.\n^2 pmoles of mevalonic acid synthesized per minute per mg of […]"}, "[3]": {"biological_target": "T1, HMG-CoA reductase", "test": "HPLC fractions checked in vitro for suppression of HMG Co-A reductase in isolated hepatocytes", "format": "cell-based", "design": "suppress HMG Co-A reductase activity in isolated hepatocytes; endogenous in cells; host or cells: isolated hepatocytes", "details": "HPLC fractions of petroleum ether solubles"}, "[4]": {"tested_on": "Fatty Acid Synthetase", "test": "Hepatic fatty acid synthetase activity in 3-week-old broiler male chickens fed supplemented corn diet", "format": "in vivo, chicken", "details": "liver; for Fatty Acid Synthetase: mean ± SD, N = 9", "excerpt": "as §1, §2, §3, §4\n^3 nmoles of NADPH oxidized per minute per mg of cytosolic protein."}, "[5]": {"details": "2.5 ppm in corn diet, fed 3 weeks"}, "[6]": {"details": "5.0 ppm in corn diet, fed 3 weeks"}, "[7]": {"details": "10.0 ppm in corn diet, fed 3 weeks"}, "[8]": {"details": "15.0 ppm in corn diet, fed 3 weeks"}, "[9]": {"details": "20.0 ppm in corn diet, fed 3 weeks"}}, "data": [{"smiles": "CC(C)=CCC/C(C)=C/CC/C(C)=C/CC[C@]1(C)CCc2c(C)c(O)c(C)c(C)c2O1", "note": "[Cholesterol inhibitor I, 2,5,7,8-tetramethyl-2 (4,8, 12-trimethyltrideca-3,7, 11-trienyl)chroman-6-ol]", "values": [{"measurement": "Fatty Acid Synthetase, percentage of control", "setting": "[1]", "result": "111 Percentage of respective contr"}, {"measurement": "Fatty Acid Synthetase", "setting": "[1]; mean ± SD, N = 8", "result": "292 ± 9 nmoles of NADPH oxidized per m"}, {"measurement": "HMG-CoA Reductase, percentage of control", "setting": "[2]; [5]", "result": "87 Percentage of respective contr"}, {"measurement": "HMG-CoA Reductase", "setting": "[2]; [5]", "result": "172 ± 12 pmoles of mevalonic acid synth"}, {"measurement": "HMG-CoA Reductase, percentage of control", "setting": "[2]; [6]", "result": "81 Percentage of respective contr"}, {"measurement": "HMG-CoA Reductase", "setting": "[2]; [6]", "result": "161 ± 12 pmoles of mevalonic acid synth"}, {"measurement": "HMG-CoA Reductase, percentage of control", "setting": "[2]; [7]", "result": "73 Percentage of respective contr"}, {"measurement": "HMG-CoA Reductase", "setting": "[2]; [7]", "result": "144 ± 9 pmoles of mevalonic acid synth"}, {"measurement": "HMG-CoA Reductase, percentage of control", "setting": "[2]; [8]", "result": "68 Percentage of respective contr"}, {"measurement": "HMG-CoA Reductase", "setting": "[2]; [8]", "result": "135 ± 8 pmoles of mevalonic acid synth"}, {"measurement": "HMG-CoA Reductase, percentage of control", "setting": "[2]; [9]", "result": "66 Percentage of respective contr"}, {"measurement": "HMG-CoA Reductase", "setting": "[2]; [9]", "result": "130 ± 6 pmoles of mevalonic acid synth"}, {"measurement": "HMG-CoA Reductase", "setting": "[2]; corn diet + 5 ppm (Table 2)", "result": "134 ± 6 pmoles of mevalonic synthesize"}, {"measurement": "Effect on HMG Co-A reductase in isolated hepatocytes", "setting": "[3]", "result": "significant inhibition"}, {"measurement": "Fatty Acid Synthetase, percentage of control", "setting": "[4]; [5]", "result": "118 Percentage of respective contr"}, {"measurement": "Fatty Acid Synthetase", "setting": "[4]; [5]", "result": "190 ± 12 nmoles of NADPH oxidized per m"}, {"measurement": "Fatty Acid Synthetase, percentage of control", "setting": "[4]; [6]", "result": "120 Percentage of respective contr"}, {"measurement": "Fatty Acid Synthetase", "setting": "[4]; [6]", "result": "202 ± 10 nmoles of NADPH oxidized per m"}, {"measurement": "Fatty Acid Synthetase, percentage of control", "setting": "[4]; [7]", "result": "125 Percentage of respective contr"}, {"measurement": "Fatty Acid Synthetase", "setting": "[4]; [7]", "result": "210 ± 15 nmoles of NADPH oxidized per m"}, {"measurement": "Fatty Acid Synthetase, percentage of control", "setting": "[4]; [8]", "result": "130 Percentage of respective contr"}, {"measurement": "Fatty Acid Synthetase", "setting": "[4]; [8]", "result": "218 ± 17 nmoles of NADPH oxidized per m"}, {"measurement": "Fatty Acid Synthetase, percentage of control", "setting": "[4]; [9]", "result": "140 Percentage of respective contr"}, {"measurement": "Fatty Acid Synthetase", "setting": "[4]; [9]", "result": "235 ± 18 nmoles of NADPH oxidized per m"}, {"measurement": "Fatty Acid Synthetase", "setting": "[4]; corn diet + 5 ppm (Table 2)", "result": "215 ± 18 nmoles of NADPH oxidized per m"}]}]}
